According to US20220330549A1, “USE OF N-BENZYLBENZAMIDE-BASED COMPOUND AS HERBICIDE” (Northwest A&F University, priority 2020, published 2022):

Assays:
Assay type in all cases: in vivo
[1] = tested on: Barnyard grass; test: Herbicidal activity test for indoor pre-emergence soil treatment; set-up: key: level 1-9; higher = more weed remaining vs blank control; conditions: 150 g a.i./ha, visual inspection 21 days after treatment
Summary of the method: (§1)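 Pre-emergence soil spray per NY/T 1155.3-2006: weed seeds sown in moistened neutral sandy loam (organic content ≤2%), covered with 0.5–2.0 cm soil, then sprayed 24 h later with a water-diluted 10% emulsifiable concentrate at 150 g(a.i.)/ha. Visual rating after 21 days on a 1–9 scale.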

[2] = tested on: Piemarker; test: as above; set-up: key: level 1-9; higher = more weed remaining vs blank control; conditions: 150 g a.i./ha, visual inspection 21 days after treatment
Summary of the method: as §1

[3] = tested on: green bristlegrass; test: as above; set-up: key: level 1-9; higher = more weed remaining vs blank control; conditions: 150 g a.i./ha, visual inspection 21 days after treatment
Summary of the method: as §1

[4] = tested on: Amaranthus retroflexus; test: as above; set-up: key: 1-9 levels; higher = more weed remaining vs blank control; conditions: 150 g a.i./ha, visual inspection 21 days after treatment
Summary of the method: as §1

[5] = tested on: Digitaria sanguinalis; test: as above; set-up: key: 1-9 levels; higher = more weed remaining vs blank control; conditions: 150 g a.i./ha, visual inspection 21 days after treatment
Summary of the method: as §1

[6] = tested on: Humulus scandens; test: as above; conditions: 150 g a.i./ha, visual inspection 21 days after treatment
Summary of the method: as §1

[7] = tested on: Amaranthus retroflexus; test: Herbicidal activity test for indoor post-emergence spraying on stems and leaves; set-up: key: grade level by weed remaining vs blank control, e.g. 5 = 10.1-15%; conditions: 150 g a.i./ha, visual inspection 21 days after treatment
Summary of the method: (§2)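 Run per NY/T 1155.4-2006: weeds sown, grown in greenhouse, then sprayed post-emergence on stems and leaves. Effect scored visually 21 days after treatment on a graded level scale relative to weed in the blank control area.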

[8] = tested on: Barnyard grass; test: as above; set-up: key: grade level by weed remaining vs blank control, e.g. 5 = 10.1-15%; conditions: 150 g a.i./ha, visual inspection 21 days after treatment
Summary of the method: as §2

[9] = tested on: Digitaria sanguinalis; test: as above; set-up: key: grade level by weed remaining vs blank control, e.g. 5 = 10.1-15%; conditions: 150 g a.i./ha, visual inspection 21 days after treatment
Summary of the method: as §2

[10] = tested on: Humulus scandens; test: as above; set-up: key: grade level by weed remaining vs blank control, e.g. 5 = 10.1-15%; conditions: 150 g a.i./ha, visual inspection 21 days after treatment
Summary of the method: as §2

[11] = tested on: Piemarker; test: as above; set-up: key: grade level by weed remaining vs blank control, e.g. 5 = 10.1-15%; conditions: 150 g a.i./ha, visual inspection 21 days after treatment
Summary of the method: as §2

[12] = tested on: green bristlegrass; test: as above; set-up: key: grade level by weed remaining vs blank control, e.g. 5 = 10.1-15%; conditions: 150 g a.i./ha, visual inspection 21 days after treatment
Summary of the method: as §2

[13] = tested on: Broadleaf weed; test: Post-emergence herbicidal activity test in a paddy field; set-up: key: level scale; higher level = more weed left vs blank control; conditions: 150 g a.i./ha (penoxsulam control 250 g(a.i.)/h)
Summary of the method: (§3)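 Efficacy was visually estimated 15 and 30 days after spraying, grading weed coverage relative to an untreated neighbouring plot (level 2 = 0 to 2.5%, level 9 = 67.6 to 100%). Treatments were 150 g(a.i.)/ha from 10% emulsifiable concentrates applied at the 4-5 leaf rice stage, four repeats of 50 m^2 each.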

[14] = tested on: Cyperaceae; test: as above; set-up: key: level scale; higher level = more weed left vs blank control; conditions: 150 g a.i./ha (penoxsulam control 250 g(a.i.)/h)
Summary of the method: as §3

[15] = tested on: Gramineae; test: as above; set-up: key: level scale; higher level = more weed left vs blank control; conditions: 150 g a.i./ha (penoxsulam control 250 g(a.i.)/h)
Summary of the method: as §3

[16] = tested on: Acalypha australis; test: Field test for weed control in a corn field; conditions: 150 g a.i./ha, after treatment
Summary of the method: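 Post-emergence field trial in a corn field following GB/T 17980.42-2000. Test compounds were formulated as 10% emulsifiable concentrates, diluted in water, and sprayed at 150 g(a.i.)/ha when corn had 2 to 5 leaves, with 4 replicates on 20 m^2 plots. Mesotrione 25% oil dispersion served as the control agent. Weed control was scored on a 1-9 scale.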

[17] = tested on: Amaranthus retroflexus; test: Field test for weed control in a corn field; conditions: 150 g a.i./ha, 30 days after treatment
Summary of the method: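 Field efficacy trial in a corn field following GB/T 17980.42-2000. Test compounds were formulated as 10% emulsifiable concentrates, diluted in water and sprayed post-emergence when corn had 2 to 5 leaves. Each treatment covered 20 m^2 with 4 replicates. A 25% mesotrione oil dispersion served as control. Damage to Amaranthus retroflexus was rated on a 1-9 scale against untreated blank plots.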

[18] = tested on: Barnyard grass; test: Field test for weed control in a corn field; conditions: 150 g a.i./ha, 30 days after treatment
Summary of the method: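 Corn-field efficacy trial following GB/T 17980.42-2000. Test compounds were formulated as 10% emulsifiable concentrates, diluted in water and sprayed post-emergence at 150 g(a.i.)/ha when corn had 2 to 5 leaves. Each treatment was replicated 4 times on 20 m^2 plots. Barnyard grass control was rated on a 1-9 damage scale.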

[19] = tested on: Chenopodium album; test: Field test for weed control in a corn field; conditions: 150 g a.i./ha, after treatment
Summary of the method: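 A corn-field efficacy trial following GB/T 17980.42-2000 tested post-emergence control of Chenopodium album. Test compounds formulated as 10% emulsifiable concentrates were diluted in water and sprayed at 150 g(a.i.)/ha when the corn had 2 leaves to 5 leaves, on 20 m^2 plots with 4 replicates. Herbicidal activity was rated on a 1-9 scale by damage symptoms and severity.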

[20] = tested on: Convolvulus arvensis; test: Field test for weed control in a corn field; conditions: 150 g a.i./ha, after treatment
Summary of the method: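 Field trial of weed control against Convolvulus arvensis in corn, run following GB/T 17980.42-2000. Test agents were formulated as 10% emulsifiable concentrates and sprayed in water at 150 g(a.i.)/ha when corn plants had 2 to 5 leaves. Each treatment was replicated 4 times on 20 m^2 plots, and 25% mesotrione oil dispersion served as the control agent.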

[21] = tested on: Digitaria sanguinalis; test: Field test for weed control in a corn field; conditions: 150 g a.i./ha, after treatment
Summary of the method: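 Field trial in a corn field following GB/T 17980.42-2000. Test compounds were formulated as 10% emulsifiable concentrates, diluted in water and sprayed post-emergence at 150 g(a.i.)/ha when corn had 2 to 5 leaves, with 4 replicates on 20 m^2 plots. Control of Digitaria sanguinalis was scored on a 1-9 scale based on weed damage relative to the untreated blank area.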

[22] = tested on: Portulaca oleracea; test: Field test for weed control in a corn field; conditions: 150 g a.i./ha, after treatment
Summary of the method: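 Field efficacy trial in corn following GB/T 17980.42-2000. Test compounds were prepared as 10% emulsifiable concentrates, diluted in water, and sprayed at 150 g(a.i.)/ha when corn had 2 to 5 leaves after sowing. Plots were 20 m^2 with 4 replicates per treatment. Herbicidal activity was scored on a 1-9 scale from weed damage symptoms and severity.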

[23] = tested on: Solanum nigrum; test: Field test for weed control in a corn field; conditions: 150 g a.i./ha, 30 days after treatment
Summary of the method: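 Post-emergence weed control was tested in a corn field following GB/T 17980.42-2000. Compounds were made into 10% emulsifiable concentrates, diluted in water and sprayed at 150 g(a.i.)/ha when corn had 2 to 5 leaves after sowing, in 20 m^2 plots with 4 replicates. Effects on Solanum nigrum were graded on a 1-9 scale relative to the blank control area.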

[24] = tested on: goosegrass; test: Field test for weed control in a corn field; conditions: 150 g a.i./ha, after treatment
Summary of the method: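 Weed control efficacy against goosegrass was tested in a corn field following GB/T 17980.42-2000. Compounds formulated as 10% emulsifiable concentrates were diluted in water and sprayed post-emergence at 150 g(a.i.)/ha when corn had 2 to 5 leaves, with 4 replicates of 20 m^2 plots. Herbicidal activity was rated on a 1-9 scale by damage symptoms and severity.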

[25] = tested on: green bristlegrass; test: Field test for weed control in a corn field; conditions: 150 g a.i./ha, after treatment
Summary of the method: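 Post-emergence weed control was tested in a corn field following GB/T 17980.42-2000. When the corn had 2 leaves to 5 leaves after sowing, 10% emulsifiable concentrates diluted in water were sprayed at 150 g(a.i.)/ha on 20 m^2 plots, four replicates per treatment. Effects on green bristlegrass were scored on a 1-9 damage scale relative to the blank control area.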

[26] = tested on: nutgrass flatsedge; test: Field test for weed control in a corn field; conditions: 150 g a.i./ha, after treatment
Summary of the method: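 A corn field efficacy trial following GB/T 17980.42-2000 assessed post-emergence control of nutgrass flatsedge. Test compounds were formulated as 10% emulsifiable concentrates, diluted in water, and sprayed at 150 g(a.i.)/ha when the corn had 2 to 5 leaves. Each treatment had 4 replicates on 20 m^2 plots. Herbicidal activity was graded on a 1-9 scale by damage symptoms and severity.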

Row | SMILES | Herbicidal Activity Barnyard grass [1] | Herbicidal Activity Piemarker [2] | Herbicidal Activity Green bristlegrass [3] | Herbicidal Activity Amaranthus retroflexus [4] | Herbicidal Activity Digitaria sanguinalis [5] | Herbicidal Activity Humulus scandens [6] | Herbicidal Activity Amaranthus retroflexus [7] | Herbicidal Activity Barnyard grass [8] | Herbicidal Activity Digitaria sanguinalis [9] | Herbicidal Activity Humulus scandens [10] | Herbicidal Activity Piemarker [11] | Herbicidal Activity Green bristlegrass [12] | Herbicidal activity 15 days after treatment Broadleaf weed [13] | Herbicidal activity 30 days after treatment Broadleaf weed [13] | Herbicidal activity 15 days after treatment Cyperaceae [14] | Herbicidal activity 30 days after treatment Cyperaceae [14] | Herbicidal activity 15 days after treatment Gramineae [15] | Herbicidal activity 30 days after treatment Gramineae [15] | Post-emergence weed control effect, Acalypha australis [16] | Post-emergence weed control effect, Amaranthus retroflexus [17] | further results
1 | COc1cccc(CNC(=O)c2cccnc2OC)c1 [Compound A87] | 2 (equivalent to 0 to 2.5% of the weed in the blank control area) | 2 (equivalent to 0 to 2.5% of the weed in the blank control area) | 1 | 2 (equivalent to 0 to 2.5% of the weed in the blank control area) | 2 (equivalent to 0 to 2.5% of the weed in the blank control area) | 3 (equivalent to 2.6 to 5% of the weed in the blank control area) | 1 | 2 (equivalent to 0 to 2.5% of the weed in the blank control area) | 1 | 1 | 1 | 1 | 1 | 1 | 1 | 1 | 2 (equivalent to 0 to 2.5% of the weed in the blank control area) | 1 | 2 (equivalent to 0 to 2.5% of the weed in the blank control area) | 1 | Post-emergence weed control effect, Barnyard grass [18]: 1; Post-emergence weed control effect, Chenopodium album [19]: 1; Post-emergence weed control effect, Convolvulus arvensis [20]: 1; Post-emergence weed control effect, Digitaria sanguinalis [21]: 2 (equivalent to 0 to 2.5% of the weed in the blank control area); Post-emergence weed control effect, Portulaca oleracea [22]: 1; Post-emergence weed control effect, Solanum nigrum [23]: 2 (equivalent to 0 to 2.5% of the weed in the blank control area); Post-emergence weed control effect, Goose grass [24]: 2 (equivalent to 0 to 2.5% of the weed in the blank control area); Post-emergence weed control effect, Green bristlegrass [25]: 1; Post-emergence weed control effect, Nutgrass flatsedge [26]: 2 (equivalent to 0 to 2.5% of the weed in the blank control area)
2 | Cc1cccc(C(=O)NCc2cc(F)cc(Cl)c2)c1 [Compound B07] | 1 | 1 | 1 | 2 (equivalent to 0 to 2.5% of the weed in the blank control area) | 1 | 3 (equivalent to 2.6 to 5% of the weed in the blank control area) | 1 | 1 | 1 | 1 | 1 | 1 | 1 | 1 | 1 | 1 | 2 (equivalent to 0 to 2.5% of the weed in the blank control area) | 2 (equivalent to 0 to 2.5% of the weed in the blank control area) | 2 (equivalent to 0 to 2.5% of the weed in the blank control area) | 1 | Post-emergence weed control effect, Barnyard grass [18]: 1; Post-emergence weed control effect, Chenopodium album [19]: 1; Post-emergence weed control effect, Convolvulus arvensis [20]: 1; Post-emergence weed control effect, Digitaria sanguinalis [21]: 2 (equivalent to 0 to 2.5% of the weed in the blank control area); Post-emergence weed control effect, Portulaca oleracea [22]: 1; Post-emergence weed control effect, Solanum nigrum [23]: 2 (equivalent to 0 to 2.5% of the weed in the blank control area); Post-emergence weed control effect, Goose grass [24]: 2 (equivalent to 0 to 2.5% of the weed in the blank control area); Post-emergence weed control effect, Green bristlegrass [25]: 2 (equivalent to 0 to 2.5% of the weed in the blank control area); Post-emergence weed control effect, Nutgrass flatsedge [26]: 2 (equivalent to 0 to 2.5% of the weed in the blank control area)
